Results from article PMC9533837 (Antiviral Research, 2003).
Values after ≈ are worked out from the molar mass of the structure shown. Where two headings read alike, the source gives them in different places.

What was measured:
VAC = settings: cited from earlier work
[1] = tested on: VAR-GAR (1966 Brazil Garcia isolate of VAR minor); experiment: organism not typed; type: cell-based, variola minor; settings: for IC50: LLC-MK2, read-out: IC50 VAR-GAR LLC-MK2
VAR isolate Rumbec = experiment: organism not typed; type: cell-based, variola; settings: Vero, read-out: IC50, VAR isolate Rumbec
VAR isolate V68-59 = experiment: organism not typed; type: cell-based, variola minor; settings: Vero, read-out: IC50, VAR isolate V68-59
VAR isolate Juba = experiment: organism not typed; type: cell-based, variola; settings: Vero, read-out: IC50, VAR isolate Juba
[2] = tested on: VAR-YAM (1946 Japan Yamada isolate of VAR major); experiment: organism not typed; type: cell-based, variola major; settings: for IC50: Vero
VAR isolate K1629 = experiment: organism not typed; type: cell-based, variola; settings: Vero, read-out: IC50, VAR isolate K1629
VAR isolate Kali-Muthu = experiment: organism not typed; type: cell-based, variola; settings: Vero, read-out: IC50, VAR isolate Kali-Muthu
VAR isolate Rafig Lahore = experiment: organism not typed; type: cell-based, variola; settings: Vero, read-out: IC50, VAR isolate Rafig Lahore
[3] = tested on: VAC, including recombinant VAC; settings: mouse, in vivo; cited from earlier work
[4] = read-out: IC50, VAR isolate Yamada

SMILES	activity in vivo, VAC mouse model (VAC)	Therapeutic index (TI) VAR-GAR LLC-MK2 [1]	IC50 [1] [mg/L]	IC50 (VAR isolate Rumbec) [mg/L]	IC50 (VAR isolate V68-59) [mg/L]	IC50 (VAR isolate Juba) [mg/L]	Therapeutic index (TI) VAR-YAM Vero [2]	IC50 [2, 4] [mg/L]	IC50 ([2]; read-out: IC50 VAR-YAM Vero) [mg/L]	IC50 (VAR isolate K1629) [mg/L]	IC50 (VAR isolate Kali-Muthu) [mg/L]	IC50 (VAR isolate Rafig Lahore) [mg/L]	activity in murine tailpox models [3]
Nc1ccn(C[C@@H](CO)OCP(=O)(O)O)c(=O)n1 [Cidofovir, 1-[(S)-3-hydroxy-2-(phosphonomethoxy)-propyl]cytosine]	active in vivo	40.0	2.5 (≈ 8.95 µM)	10 (≈ 35.8 µM)	13 (≈ 46.6 µM)	14 (≈ 50.1 µM)	8.3	13 (≈ 46.6 µM)	12.1 (≈ 43.3 µM)	17 (≈ 60.9 µM)	11 (≈ 39.4 µM)	12 (≈ 43 µM)	–
NC(=O)c1ncn([C@@H]2O[C@H](CO)[C@@H](O)[C@H]2O)n1 [Ribavirin]	–	27.8	3.6 (≈ 14.7 µM)	–	41 (≈ 168 µM)	–	6.3	40 (≈ 164 µM)	15.8 (≈ 64.7 µM)	24 (≈ 98.3 µM)	–	30 (≈ 123 µM)	active
